Source: paper PMC6414029, “Utilisation of the Prestwick Chemical Library to identify drugs that inhibit the growth of mycobacteria” (PLoS ONE, 2019)
pIC50: −log10 of the molar value. ≈ marks a conversion by molar mass, not a printed value. Structures can show the parent of a compound that is named as a salt. Where two headings read alike, the source gives them in different places.

Columns and labels:
BCG [1] = test: microbe, parasite or virus in culture; format: cell-based, Mycobacterium bovis BCG; conditions: for MIC: Mycobacterium tuberculosis variant bovis BCG
BCG [2] = test: microbe, parasite or virus in culture; format: cell-based, Mycobacterium bovis BCG; conditions: for MIC: Mycobacterium tuberculosis variant bovis BCG, BCG, read-out: Liquid MIC
M. tuberculosis H37Rv = test: Alamar Blue (resazurin) MIC assay; format: cell-based, Mycobacterium tuberculosis; conditions: liquid growth media
Description: To investigate the effects of repurposed compounds on growth of M. tuberculosis H37Rv using an Alamar Blue based MIC assay using the resazurin reagent. This assay was performed in 7H9 medium containing Middlebrook broth and 0.5% glycerol and supplemented with oleic acid, albumin, dextrose, and catalase. Clear- 96-well plates were inoculated with 100 μL of drug diluted with 90 μl of 7H9 medium and 10 μL DMSO. Serial 3-fold dilutions of each drug in 100 μL of 7H9 medium were prepared at various ranges. Growth controls containing no antibiotic and sterility controls without inoculation were also included. 200 μL of sterile deionized water was added to the outer perimeter wells to prevent evaporation during plate incubation. Plates were incubated plate at 37°C for 3–4 days. After incubation, the plates were removed and 10 μL of resazurin (0.02% w/v) was added to each well that contained bacteria. Assay plates were reincubated at 37°C for 24–48 hours and visually assessed for colour development. OD 570 nm readings were taken to provide further quantitation provide an interpretation of the dose response of the bacterium to repurposed compounds.

HepG2 cells = test: HepG2 cytotoxicity assay (CellTitre-Glo); format: cell-based
Description: Actively growing HepG2 cells were removed from a T-175 tissue culture flask with 5 mL of Eagle’s MEM containing 10% FBS/1%NEAA/1% Penicillin and Streptomycin) and mixed with gentle pipetting. […] The cell suspension was added to 250 mL of the same medium at a final density of […]. […] Plates were allowed to incubate at 37°C at a relative humidity of 80% and 5% CO2 for 48 hours. After incubation, the plates were allowed to equilibrate at room temperature for 30 mins before 25 μL of CellTitre-Glo (Promega) reagent was added to each well using a multichannel pipette. Plates were left at room temperature for 30 mins before relative luminescence was read using a BMG Labtech POLARstar Omega plate reader.

M. smegmatis [3] = test: MIC determination on solid agar; format: cell-based, Mycobacterium smegmatis; conditions: M. smegmatis, 7H10 solid agar, absence of colonies, read-out: Solid MIC
Description: Drugs were diluted from a 10mM stock, mixed individually in 2 mLs of molten 7H10 agar and dispensed in square partitioned petri plates. Plates were incubated at 37°C and solid MIC was determined based on absence of colonies.

M. smegmatis [4] = test: microbe, parasite or virus in culture; format: cell-based, Mycobacterium smegmatis; conditions: liquid medium
BCG [5] = format: cell-based, Mycobacterium bovis BCG
M. smegmatis [6] = format: cell-based, Mycobacterium smegmatis; conditions: 20 μM compound, 48 hr read, GFP fluorescence
[7] = read-out: Solid MIC, BCG, 7H10 solid agar, absence of colonies
[8] = read-out: Solid MIC, BCG, solid agar, values given in mM

CN(C)CC/C=C1/c2ccccc2COc2ccc(CC(=O)O)cc21 [Olopatadine]
MIC (BCG [1]; [7]): ≥ 0.5 mM | MIC (BCG [1]; [8]): > 0.5 mM | Liquid MIC (BCG [2]): 202.30 µM | MIC (BCG [2]): 202 µM (≈ 68.3 µg/mL)

N=C(N)c1ccc(OCCCCCOc2ccc(C(=N)N)cc2)cc1 [Pentamidine]
MIC (BCG [1]; [7]): 0.05 mM (≈ 17 µg/mL) | MIC (BCG [1]; [8]): ~0.05 mM (≈ 17 µg/mL) | MIC (M. tuberculosis H37Rv; Mycobacterium tuberculosis): 10.5 µM (≈ 3.58 µg/mL) | pIC50 (HepG2 cells; Homo sapiens, HepG2, 48 hours): 5.46 | MIC (BCG [2]): 3.23 µM (≈ 1.1 µg/mL)

CC(C)(N)Cc1ccccc1 [Phenteramine, Phentermine]
MIC (BCG [2]): 375 µM (≈ 56 µg/mL)

O=C(c1ccc(OCCN2CCCCC2)cc1)c1c(-c2ccc(O)cc2)sc2cc(O)ccc12 [Raloxifene]
MIC (M. smegmatis [3]): 312.5 µM (≈ 148 µg/mL) | MIC (M. tuberculosis H37Rv): 22.10 µM (≈ 10.5 µg/mL) | pIC50 (HepG2 cells; 48 hours): 4.70 | MIC (M. smegmatis [4]): 25.7 µM (≈ 12.2 µg/mL)

CN(CCOc1ccc(CC2SC(=O)NC2=O)cc1)c1ccccn1 (stereo not shown) [Rosiglitazone]
MIC (BCG [1]; [7]): ≥ 1.5 mM | MIC (BCG [1]; [8]): ~1.5 mM (≈ 536 µg/mL) | MIC (BCG [2]): 43.1 µM (≈ 15.4 µg/mL)

CN[C@H]1CC[C@@H](c2ccc(Cl)c(Cl)c2)c2ccccc21 [Sertraline]
MIC (M. smegmatis [3]; Mycolicibacterium smegmatis): 90 µM (≈ 27.6 µg/mL) | MIC (M. smegmatis [4]): 526.7 µM (≈ 161 µg/mL)

CCCCCCCCNC(C)C(O)c1ccc(SC(C)C)cc1 (stereo not shown) [Sulocitidil]
MIC (M. smegmatis [3]): 625 µM (≈ 211 µg/mL) | MIC (M. smegmatis [4]): 87.22 µM (≈ 29.4 µg/mL)

CC/C(=C(\c1ccccc1)c1ccc(OCCN(C)C)cc1)c1ccccc1 [Tamoxifen citrate]
MIC (M. tuberculosis H37Rv; Mycobacterium tuberculosis): ≥ 100 µM | MIC (M. smegmatis [4]): 26.48 µM

CCCCCCCCCCCCCCCC[N+](C)(C)CCN(Cc1ccc(OC)cc1)c1ncccn1 [Thonzonium, Thonzonium bromide]
Solid MIC relative to liquid MIC (BCG [1]): 5 fold | MIC (BCG [1]; [7]): ~0.005 mM | MIC (BCG [2]): 0.16 µM

CN(C)CCOc1ccc(/C(=C(/CCCl)c2ccccc2)c2ccccc2)cc1 [Toremifene]
MIC (M. smegmatis [3]; Mycolicibacterium smegmatis): 62.5 µM (≈ 25.4 µg/mL) | MIC (M. smegmatis [4]): 23.76 µM (≈ 9.65 µg/mL)

CN(C)CCN(Cc1ccccc1)c1ccccn1 [Tripelennamine]
Solid MIC relative to liquid MIC (BCG [1]): 2 fold | MIC (BCG [1]; [7]): 0.1 mM (≈ 25.5 µg/mL) | MIC (BCG [1]; [8]): 0.1 mM (≈ 25.5 µg/mL) | MIC (M. tuberculosis H37Rv; Mycobacterium tuberculosis): 49.3 µM (≈ 12.6 µg/mL) | pIC50 (HepG2 cells; Homo sapiens, HepG2, 48 hours): < 3.60 | MIC (BCG [2]): 41.9 µM (≈ 10.7 µg/mL)

CC[C@@H](CO)NCCN[C@@H](CC)CO [ethambutol]
% survival (BCG [5]): < 25% | % survival (M. smegmatis [6]): < 25%

NNC(=O)c1ccncc1 [isoniazid]
% survival (BCG [5]): < 25% | % survival (M. smegmatis [6]): < 25%

NC(=O)c1cnccn1 [pyrazinamide]
% survival (BCG [5]): < 25%

CO[C@H]1/C=C/O[C@@]2(C)Oc3c(C)c(O)c4c(O)c(c(/C=N/N5CCN(C)CC5)c(O)c4c3C2=O)NC(=O)/C(C)=C\C=C\[C@H](C)[C@H](O)[C@@H](C)[C@@H](O)[C@@H](C)[C@H](OC(C)=O)[C@@H]1C [rifampicin]
% survival (BCG [5]): < 25% | % survival (M. smegmatis [6]): < 25%

[H]/N=C(/N)N[C@H]1[C@H](O)[C@@H](O)[C@H](O[C@@H]2O[C@@H](C)[C@](O)(C=O)[C@H]2O[C@@H]2O[C@@H](CO)[C@H](O)[C@@H](O)[C@@H]2NC)[C@@H](N/C(N)=N\[H])[C@@H]1O [streptomycin]
% survival (BCG [5]): < 25% | % survival (M. smegmatis [6]): < 25%
